According to patent US11028078B2 (The Johns Hopkins University, priority 2011, dated 2021):
Read-outs that look alike come from different tables or passages of the source.

Assays:
[1] = target: T1, CYP3A4 (Homo sapiens, UniProt P08684); experiment: CYP3A4 enzyme assay (Vivid CYP3A4 Green Screening Kit); type: in vitro ADME; settings: for CYP3A4 Inhibition (compared to intracozanole at 1 μm): % enzyme inhibition at 1 μM drug / % enzyme inhibition at 1 μM itraconazole
T1 construct: purchased ThermoFisher P2857; host or cells: baculosomes
Description: And CYP3A4 inhibition was initially determined using a cell-free fluorescence-based assay at a final concentration of 1 μM (Table 7).
CYP3A4 enzyme assay. CYP3A4 enzyme activity was tested using Vivid™ CYP3A4 Green Screening Kit (ThermoFisher, #P2857) using the manufacturer's protocol. Briefly, CYP3A4 baculosomes and drugs were incubated 10 min at 37° C. Then Vivid® Substrates were added and the fluorescence (ex/em:485/520) were read every 1 min for 60 minute.

[2] = tested on: HUVEC; experiment: HUVEC proliferation assay ([3H]thymidine incorporation); type: cell-based, human; settings: HUVEC; for Proliferation (IC50/IC50 Itra): Table 7, relative to itraconazole; for IC50: Homo sapiens
In short: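 Pooled HUVEC at passage eight or lower, grown in EGM-2 medium; proliferation measured by [3H]thymidine incorporation as in an earlier published protocol.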

[3] = target: T1, CYP3A4; experiment: CYP3A4 enzyme assay (Vivid CYP3A4 Green Screening Kit); type: in vitro ADME; settings: FIG. 12, higher concentrations
[4] = 3H thymidine incorporation, in μM, read-out: Proliferation IC50
[5] = read-out: IC50 for inhibition of HUVEC proliferation

T1 sequence (P08684 whole entry): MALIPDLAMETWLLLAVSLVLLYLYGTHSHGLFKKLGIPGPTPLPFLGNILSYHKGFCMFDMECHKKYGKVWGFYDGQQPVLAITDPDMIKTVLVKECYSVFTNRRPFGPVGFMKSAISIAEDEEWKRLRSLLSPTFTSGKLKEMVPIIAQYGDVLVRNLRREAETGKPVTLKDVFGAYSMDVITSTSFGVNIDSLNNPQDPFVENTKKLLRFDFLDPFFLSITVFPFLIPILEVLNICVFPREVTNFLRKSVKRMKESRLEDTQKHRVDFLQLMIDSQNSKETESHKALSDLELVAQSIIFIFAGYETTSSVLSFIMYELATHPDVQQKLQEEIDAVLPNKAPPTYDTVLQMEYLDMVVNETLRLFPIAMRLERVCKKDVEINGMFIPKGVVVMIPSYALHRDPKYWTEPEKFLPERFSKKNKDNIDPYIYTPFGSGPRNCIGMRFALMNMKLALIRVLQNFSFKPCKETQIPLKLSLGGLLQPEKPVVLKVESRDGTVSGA

Structure (SMILES) | CYP3A4 Inhibition (compared to intracozanole at 1 μm) [1] | CYP3A4 inhibition in the initial screening ([1]; 1 μM) | CYP3A4 inhibition in dose response assays [3] | Proliferation (IC50/IC50 Itra) [2] | IC50 [2, 4] [µM] | IC50 [2, 5] [µM]
CCC(C)n1ncn(-c2ccc(N3CCN(c4ccc(OC[C@@H]5CO[C@@](Cn6c(C)cnc6C)(c6ccc(Cl)cc6Cl)O5)cc4)CC3)cc2)c1=O (stereo partly drawn) [Compound 241, 1-(sec-butyl)-4-(4-(4-(4-(((2S,4R)-2-(2,4-dichlorophenyl)-2-((2,5-dimethyl-1H-imidazol-1-yl)methyl)-1,3-dioxolan-4-yl)methoxy)phenyl)piperazin-1-yl)phenyl)-1H-1,2,4-triazol-5(4H)-one] | 0.27 |  |  | 3.1 | 0.492 | 
CCc1nccn1C[C@@]1(c2ccc(Cl)cc2Cl)OC[C@@H](COc2ccc(N3CCN(c4ccc(-n5cnn(C(C)CC)c5=O)cc4)CC3)cc2)O1 (stereo partly drawn) [Compound 243, 1-(sec-butyl)-4-(4-(4-(4-(((2S,4R)-2-(2,4-dichlorophenyl)-2-((2-ethyl-1H-imidazol-1-yl)methyl)-1,3-dioxolan-4-yl)methoxy)phenyl)piperazin-1-yl)phenyl)-1H-1,2,4-triazol-5(4H)-one] | 0.08 |  |  |  | 0.225 | 
CCC(C)n1ncn(-c2ccc(N3CCN(c4ccc(OC[C@@H]5CO[C@@](Cn6ccnc6C(C)C)(c6ccc(Cl)cc6Cl)O5)cc4)CC3)cc2)c1=O (stereo partly drawn) [Compound 245, 1-sec-butyl-4-(4-(4-(4-(((2S,4R)-2-(2,4-dichlorophenyl)-2-((2-isopropyl-1H-imidazol-1-yl)methyl)-1,3-dioxolan-4-yl)methoxy)phenyl)piperazin-1-yl)phenyl)-1H-1,2,4-triazol-5(4H)-one] | 0.07 |  |  | 0.4 | 0.068 | 
CCC(C)n1ncn(-c2ccc(N3CCN(c4ccc(OC[C@@H]5CO[C@@](Cn6ccnc6-c6ccccc6)(c6ccc(Cl)cc6Cl)O5)cc4)CC3)cc2)c1=O (stereo partly drawn) [Compound 246, 1-sec-butyl-4-(4-(4-(4-(((2S,4R)-2-(2,4-dichlorophenyl)-2-((2-phenyl-1H-imidazol-1-yl)methyl)-1,3-dioxolan-4-yl)methoxy)phenyl)piperazin-1-yl)phenyl)-1H-1,2,4-triazol-5(4H)-one] | 0.27 |  |  |  | 0.136 | 
CCC(C)n1ncn(-c2ccc(N3CCN(c4ccc(OC[C@@H]5CO[C@@](Cn6ncnn6)(c6ccc(Cl)cc6Cl)O5)cc4)CC3)cc2)c1=O (stereo partly drawn) [Compound 249, 4-(4-(4-(4-(((2S,4R)-2-((2H-tetrazol-2-yl)methyl)-2-(2,4-dichlorophenyl)-1,3-dioxolan-4-yl)methoxy)phenyl)piperazin-1-yl)phenyl)-1-sec-butyl-1H-1,2,4-triazol-5(4H)-one] | 0.2 |  |  | 0.6 | 0.102 | 
CCC(C)n1ncn(-c2ccc(N3CCN(c4ccc(OC[C@@H]5CO[C@@](Cn6cnc(C)n6)(c6ccc(Cl)cc6Cl)O5)cc4)CC3)cc2)c1=O (stereo partly drawn) [Compound 250, 1-sec-butyl-4-(4-(4-(4-(((2S,4R)-2-(2,4-dichlorophenyl)-2-((3-methyl-1H-1,2,4-triazol-1-yl)methyl)-1,3-dioxolan-4-yl)methoxy)phenyl)piperazin-1-yl)phenyl)-1H-1,2,4-triazol-5(4H)-one] | 0.36 |  |  |  | 0.272 | 0.27
CCC(C)n1ncn(-c2ccc(N3CCN(c4ccc(OC[C@@H]5CO[C@@](Cn6cnc(C(F)(F)F)n6)(c6ccc(Cl)cc6Cl)O5)cc4)CC3)cc2)c1=O (stereo partly drawn) [Compound 251, 1-sec-butyl-4-(4-(4-(4-(((2S,4R)-2-(2,4-dichlorophenyl)-2-((3-(trifluoromethyl)-1H-1,2,4-triazol-1-yl)methyl)-1,3-dioxolan-4-yl)methoxy)phenyl)piperazin-1-yl)phenyl)-1H-1,2,4-triazol-5(4H)-one] | No inhibition | eliminated CYP3A4 inhibition |  |  | 0.272 | 0.27

The next lines start with results.

CYP3A4 Inhibition (compared to intracozanole at 1 μm) [1] | CYP3A4 inhibition in the initial screening ([1]; 1 μM) | CYP3A4 inhibition in dose response assays [3] | Structure (SMILES) | Proliferation (IC50/IC50 Itra) [2] | IC50 [2, 4] [µM] | IC50 [2, 5] [µM]
0.08 |  |  | CCC(C)n1ncn(-c2ccc(N3CCN(c4ccc(OC[C@@H]5CO[C@@](Cn6nnnc6C)(c6ccc(Cl)cc6Cl)O5)cc4)CC3)cc2)c1=O (stereo partly drawn) [Compound 252, 1-sec-butyl-4-(4-(4-(4-(((2S,4R)-2-(2,4-dichlorophenyl)-2-((5-methyl-1H-tetrazol-1-yl)methyl)-1,3-dioxolan-4-yl)methoxy)phenyl)piperazin-1-yl)phenyl)-1H-1,2,4-triazol-5(4H)-one] |  | 0.101 | 
0.22 |  |  | CCC(C)n1ncn(-c2ccc(N3CCN(c4ccc(OC[C@@H]5CO[C@@](Cn6nnnc6-c6ccccc6)(c6ccc(Cl)cc6Cl)O5)cc4)CC3)cc2)c1=O (stereo partly drawn) [Compound 253, 1-sec-butyl-4-(4-(4-(4-(((2S,4R)-2-(2,4-dichlorophenyl)-2-((5-phenyl-1H-tetrazol-1-yl)methyl)-1,3-dioxolan-4-yl)methoxy)phenyl)piperazin-1-yl)phenyl)-1H-1,2,4-triazol-5(4H)-one] |  | 0.119 | 
0.03 |  |  | CCC(C)n1ncn(-c2ccc(N3CCN(c4ccc(OC[C@@H]5CO[C@@](CBr)(c6ccc(Cl)cc6Cl)O5)cc4)CC3)cc2)c1=O (stereo partly drawn) [Compound 257, 4-(4-(4-(4-(((2S,4R)-2-(bromomethyl)-2-(2,4-dichlorophenyl)-1,3-dioxolan-4-yl)methoxy)phenyl)piperazin-1-yl)phenyl)-1-sec-butyl-1H-1,2,4-triazol-5(4H)-one] |  | 0.512 | 
No inhibition |  | totally lost CYP3A4 inhibition | CCC(C)n1ncn(-c2ccc(N3CCN(c4ccc(OC[C@@H]5CO[C@@](CC)(c6ccc(Cl)cc6Cl)O5)cc4)CC3)cc2)c1=O (stereo partly drawn) [Compound 259, 1-sec-butyl-4-(4-(4-(4-(((2R,4R)-2-(2,4-dichlorophenyl)-2-ethyl-1,3-dioxolan-4-yl)methoxy)phenyl)piperazin-1-yl)phenyl)-1H-1,2,4-triazol-5(4H)-one] |  | 0.314 | 
No inhibition |  |  | CCC(C)n1ncn(-c2ccc(N3CCN(c4ccc(OC[C@@H]5CO[C@@](CC6CCCC6)(c6ccc(Cl)cc6Cl)O5)cc4)CC3)cc2)c1=O (stereo partly drawn) [Compound 261, 1-sec-butyl-4-(4-(4-(4-(((2R,4R)-2-(cyclopentylmethyl)-2-(2,4-dichlorophenyl)-1,3-dioxolan-4-yl)methoxy)phenyl)piperazin-1-yl)phenyl)-1H-1,2,4-triazol-5(4H)-one] |  | 0.512 | 
No inhibition |  |  | CCC(C)n1ncn(-c2ccc(N3CCN(c4ccc(OC[C@@H]5COC(c6ccc(Cl)cc6Cl)O5)cc4)CC3)cc2)c1=O (stereo partly drawn) [Compound 262, 1-sec-butyl-4-(4-(4-(4-(((4R)-2-(2,4-dichlorophenyl)-1,3-dioxolan-4-yl)methoxy)phenyl)piperazin-1-yl)phenyl)-1H-1,2,4-triazol-5(4H)-one] |  | 0.328 | 
0.20 |  |  | CCC(C)n1ncn(-c2ccc(N3CCN(c4ccc(OC[C@@H]5CO[C@@](CN6CCOCC6)(c6ccc(Cl)cc6Cl)O5)cc4)CC3)cc2)c1=O (stereo partly drawn) [Compound 263, 1-(sec-butyl)-4-(4-(4-(4-(((2S,4R)-2-(2,4-dichlorophenyl)-2-(morpholinomethyl)-1,3-dioxolan-4-yl)methoxy)phenyl)piperazin-1-yl)phenyl)-1H-1,2,4-triazol-5(4H)-one] |  | 1.18 | 
No inhibition |  |  | CCC(C)n1ncn(-c2ccc(N3CCN(c4ccc(OC[C@@H]5CO[C@@](CN(C)C)(c6ccc(Cl)cc6Cl)O5)cc4)CC3)cc2)c1=O (stereo partly drawn) [Compound 264, 1-(sec-butyl)-4-(4-(4-(4-(((2S,4R)-2-(2,4-dichlorophenyl)-2-((dimethylamino)methyl)-1,3-dioxolan-4-yl)methoxy)phenyl)piperazin-1-yl)phenyl)-1H-1,2,4-triazol-5(4H)-one] |  | 1.4 | 
0.21 |  |  | CCC(C)n1ncn(-c2ccc(N3CCN(c4ccc(OC[C@@H]5CO[C@@](CN6CCN(C)CC6)(c6ccc(Cl)cc6Cl)O5)cc4)CC3)cc2)c1=O (stereo partly drawn) [Compound 265, 1-(sec-butyl)-4-(4-(4-(4-(((2S,4R)-2-(2,4-dichlorophenyl)-2-((4-methylpiperazin-1-yl)methyl)-1,3-dioxolan-4-yl)methoxy)phenyl)piperazin-1-yl)phenyl)-1H-1,2,4-triazol-5(4H)-one] |  | 0.396 | 
1.09 |  |  | CCC(C)n1ncn(-c2ccc(N3CCN(c4ccc(OC[C@@H]5CO[C@@](CN6CCNCC6)(c6ccc(Cl)cc6Cl)O5)cc4)CC3)cc2)c1=O (stereo partly drawn) [Compound 266, 1-(sec-butyl)-4-(4-(4-(4-(((2S,4R)-2-(2,4-dichlorophenyl)-2-(piperazin-1-ylmethyl)-1,3-dioxolan-4-yl)methoxy)phenyl)piperazin-1-yl)phenyl)-1H-1,2,4-triazol-5(4H)-one] |  | 0.608 | 
